Reference: ChEMBL document CHEMBL1134992, “Six-membered cyclic ureas as HIV-1 protease inhibitors: a QSAR study based on CODESSA PRO approach. Quantitative structure-activity relationships” (Bioorg Med Chem Lett, 2002)

Target: Human immunodeficiency virus type 1 protease (Human immunodeficiency virus 1, UniProt Q72874)
Test: Inhibitory activity of compound against HIV-1 aspartyl protease.
Conditions: read-out: Log 1/Ki (converted)

CNc1cc(CN2C(=O)N(Cc3ccc(F)c(NC)c3)[C@H](Cc3ccccc3)[C@H](O)[C@H]2CCc2ccccc2)ccc1F
Ki: 4.91 nM
